# Measured values reported in PMC6872814, “Functional interactions between nitrite reductase and nitric oxide reductase from Paracoccus denitrificans” (Scientific Reports, 2019).
# Target: T1, cNOR (c-type nitric oxide reductase, NorB and NorC) (Paracoccus denitrificans, UniProt A1B4X6+Q51662)
# T1 construct: gene Pden_2483; NorBC two-subunit complex, plasmid pNOREX in E. coli JM109 with pEC86, DDM-solubilised and purified; reconstituted in liposomes for the Km
# T1 sequence (A1B4X6 1-462): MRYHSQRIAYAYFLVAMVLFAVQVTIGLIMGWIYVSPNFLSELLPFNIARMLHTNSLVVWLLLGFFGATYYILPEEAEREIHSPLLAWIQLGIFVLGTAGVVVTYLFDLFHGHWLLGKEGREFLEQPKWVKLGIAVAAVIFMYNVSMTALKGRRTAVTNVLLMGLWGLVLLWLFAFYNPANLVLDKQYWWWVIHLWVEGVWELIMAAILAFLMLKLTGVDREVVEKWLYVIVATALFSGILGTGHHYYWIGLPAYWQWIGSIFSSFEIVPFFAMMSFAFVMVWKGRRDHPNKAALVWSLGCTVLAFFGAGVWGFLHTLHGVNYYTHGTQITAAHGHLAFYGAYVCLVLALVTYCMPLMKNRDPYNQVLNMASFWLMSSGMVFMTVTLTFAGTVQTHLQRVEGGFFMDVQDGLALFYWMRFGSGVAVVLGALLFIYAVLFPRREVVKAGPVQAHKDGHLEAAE
# T1 sequence (Q51662 2-150): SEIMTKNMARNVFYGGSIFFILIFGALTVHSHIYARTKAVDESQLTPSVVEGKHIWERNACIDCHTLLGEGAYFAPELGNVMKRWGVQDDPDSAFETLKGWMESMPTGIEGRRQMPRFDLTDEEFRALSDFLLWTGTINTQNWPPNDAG
# Test: Clark-type NO electrode, inhibition of NO reduction, data not shown
# Assay type: biochemical
# Conditions: inhibitor at high (mM) concentrations; 50 mM HEPES pH 7.0, 50 mM KCl
structure (smiles),measurement,value
O=NO [nitrite],"Clark-type NO electrode, inhibition of NO reduction, data not shown","For nitrite, we see that it can inhibit cNOR activity, but only at high (mM)"
